Experiments:
[1] = test system: mutated form of PCSK7 3′-UTR; assay: Luciferase reporter assay, miRNA target site-deleted PCSK7 3′-UTR, HEK293T cells; type: cell-based, human
From the text: The interactions between the miRNAs and their probable targets on PCSK7 were explored by cloning the potential target regions in psiCHECK-2™ (Promega, USA), a luciferase reporter vector. In psiCHECK-2™, hRluc, the Renilla luciferase gene, is located upstream of the target regions of interest cloned into the psiCHECK-2™ vector downstream of the Renilla gene. The region corresponding to the 3′-UTR of PCSK7 (926-nt sequences in length) that constituted the predicted miRNA response elements was PCR-amplified and cloned downstream of the Renilla luciferase gene in the psiCHECK-2™ vector (Promega, USA). For the confirmation of whether miRNA response elements (miRNA target sites) on the 3′-UTR of PCSK7 were active and had direct interactions with the miRNAs, different mutants (plasmids) were constructed via splicing by over-hang-extension (SOEing) PCR. For miR-125a-5p and miR-143-3p, each of which has two miRNA response elements on PCSK7 3′-UTR, three different mutant constructs were built. Two constructs were made by deleting a putative miRNA target site, and the third one was made by omitting both putative miRNA target sites in the 3′-UTR sequence of PCSK7. In the miR-409-3p mutant construct, a putative miRNA target site was deleted from the 3′-UTR sequence.
The HEK293T cells were co-transfected through the application of the wild-type psiCHECK-2, the wild-type PCSK7 3′-UTR, the mutant PCSK7 3′-UTR, and the miR-overexpressing vectors so that the direct interactions of the nominated miRNAs with PCSK7 3′-UTR could be investigated. In brief, 150 ng of the wild-type or mutated 3′-UTR constructs and 300 ng of the miRNA-expressing vectors were co-transfected in HEK293T-cultured 48-well plates using FuGENE™ (Invitrogen, USA). Additionally, the psiCHECK-2 and pEGFP-C1 mock vectors were transfected and utilized as controls for luciferase assay and transfection, respectively. Transfection efficiency was monitored by fluorescent microscopy (Nikon TE2000S, Japan) 36 hours following the procedure.
The PsiCHECK-2 reporter construct plasmid contained the Renilla luciferase gene upstream of PCSK7 3′-UTR and an independent firefly luciferase gene as an internal control for normalization. Forty-eight hours after HEK293T co-transfection, the luciferase reporter assay was carried out employing the Dual-Luciferase Reporter Assay System (Promega, USA) with a luminometer (Titertek-Berthold, Germany) in accordance with the manufacturer's protocol. Each sample was performed in triplicate, and the experiment was repeated at least three biological times. In short, a lysis buffer was added to each well after the removal of the media of the cell. Then, LARII Reagent was added, and after 20 minutes, the firefly luciferase activity was measured as a control. Afterward, Renilla activity was determined using Stop & Glo Reagent. The relative luciferase activity was calculated using the following formula: ΔFold Activity of Luciferase (Renilla/Firefly)=Average Renilla/Firefly from Samples A/B.
A luciferase reporter assay further confirmed that miR-125a-5p, miR-143-3p, and miR-409-3p directly targeted the 3′-UTR of the PCSK7 transcript since the negative regulatory effect was lost upon the deletion of the miRNA target sites (miR-125a-5p, miR-143-3p, and miR-409-3p) on the 3′-UTR of the PCSK7 reporter plasmid (FIGS. 28A-B). In this regard, three different mutated miR plasmids were constructed for both miR-125a-5p and miR-143-3p. Single-target sites of each miRNA were omitted individually in two separate plasmids, and the two putative binding sites of the miRNAs were deleted in the other plasmid.

[2] = target: T1, secretory short N-terminal fragment of apoB (s-apoB; aa 1-965), P04114
T1 chain: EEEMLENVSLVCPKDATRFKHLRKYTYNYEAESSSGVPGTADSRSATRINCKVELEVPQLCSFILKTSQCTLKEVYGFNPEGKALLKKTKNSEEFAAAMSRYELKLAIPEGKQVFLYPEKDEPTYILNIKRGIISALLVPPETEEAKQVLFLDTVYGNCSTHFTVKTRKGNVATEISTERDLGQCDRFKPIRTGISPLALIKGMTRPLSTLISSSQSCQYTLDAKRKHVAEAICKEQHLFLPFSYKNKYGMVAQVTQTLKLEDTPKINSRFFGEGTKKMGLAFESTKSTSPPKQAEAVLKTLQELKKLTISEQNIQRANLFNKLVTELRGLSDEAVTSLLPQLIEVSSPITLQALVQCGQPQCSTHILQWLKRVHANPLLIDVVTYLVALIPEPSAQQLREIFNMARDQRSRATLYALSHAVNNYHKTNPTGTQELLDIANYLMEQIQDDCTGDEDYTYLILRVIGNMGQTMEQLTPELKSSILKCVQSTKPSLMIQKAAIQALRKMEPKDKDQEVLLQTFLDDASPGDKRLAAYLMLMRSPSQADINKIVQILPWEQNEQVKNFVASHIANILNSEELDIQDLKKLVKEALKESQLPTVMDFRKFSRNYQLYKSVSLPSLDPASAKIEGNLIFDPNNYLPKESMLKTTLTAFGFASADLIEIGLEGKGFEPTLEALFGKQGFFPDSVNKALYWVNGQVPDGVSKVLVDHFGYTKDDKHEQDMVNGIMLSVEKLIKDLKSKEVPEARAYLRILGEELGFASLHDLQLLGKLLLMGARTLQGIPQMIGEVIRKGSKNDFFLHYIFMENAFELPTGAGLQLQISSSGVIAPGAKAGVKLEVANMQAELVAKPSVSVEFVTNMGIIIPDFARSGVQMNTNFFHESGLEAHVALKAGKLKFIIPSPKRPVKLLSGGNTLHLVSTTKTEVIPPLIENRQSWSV

miR-409-3p: miRNA with one target site in the PCSK7 3′-UTR, overexpressed from precursor vector (GAAUGUUGCUCGGUGAACCCCU; miRNA expressed from a precursor vector, further chemistry not given here)
luciferase activity ([1]; only putative target site of miR-409-3p absent): did not lead to a reduction

miR-143-3p: miRNA with two target sites in the PCSK7 3′-UTR, overexpressed from precursor vector (UGAGAUGAAGCACUGUAGCUC; miRNA expressed from a precursor vector, further chemistry not given here)
relative luciferase activity ([1]; Mut-a, deletion of the first target site): considerably diminished
relative luciferase activity ([1]; Mut-a,b, deletion of both miRNA target sites): no significant effect
relative luciferase activity ([1]; Mut-b, deletion of the second target site): considerably diminished

B1: rat PC7 soluble-KDEL variant (retained in the ER) (protein)
chain: SIHFNDPKYPQQWHLNNRRSPGRDINVTGVWERNVTGRGVTVVVVDDGVEHTVQDIAPNYSPEGSYDLNSNDPDPMPHPDEENGNHHGTRCAGEIAAVPNNSFCAVGVAYGSRIAGIRVLDGPLTDSMEAVAFNKHYQINDIYSCSWGPDDDGKTVDGPHQLGKAALQHGVMAGRQGFGSIFVVASGNGGQHNDNCNYDGYANSIYTVTIGAVDEEGRMPFYAEECASMLAVTFSGGDKMLRSIVTTDWDLQKGTGCTEGHTGTSAAAPLAAGMIALMLQVRPCLTWRDVQHIIVFTATQYEDHRADWLTNEAGFSHSHQHGFGLLNAWRLVNAAKIWTSVPYLASYVSPMLKENKAVPRSPHSLEVLWNVSRTDLEMSGLKTLEHVAVTVSITHPRRGSLELKLFCPSGMMSLIGAPRSMDSDPNGFNDWTFSTVRCWGERARGVYRLVIRDVGDEPLQVGILQQWQLTLYGSTWSPVDIKDRQSLLESAMSGKYLHDDFTLPCPPGLKIPEEDGYSITPNTLKTKDEL
secretion of s-apoB (apo21) compared to rPC7, Western blot [2]: rPC7-KDEL significantly reduced (~30%) s-apoB (apo21) secretion compared to rPC7

B2: rat PC7 (protein)
chain: SIHFNDPKYPQQWHLNNRRSPGRDINVTGVWERNVTGRGVTVVVVDDGVEHTVQDIAPNYSPEGSYDLNSNDPDPMPHPDEENGNHHGTRCAGEIAAVPNNSFCAVGVAYGSRIAGIRVLDGPLTDSMEAVAFNKHYQINDIYSCSWGPDDDGKTVDGPHQLGKAALQHGVMAGRQGFGSIFVVASGNGGQHNDNCNYDGYANSIYTVTIGAVDEEGRMPFYAEECASMLAVTFSGGDKMLRSIVTTDWDLQKGTGCTEGHTGTSAAAPLAAGMIALMLQVRPCLTWRDVQHIIVFTATQYEDHRADWLTNEAGFSHSHQHGFGLLNAWRLVNAAKIWTSVPYLASYVSPMLKENKAVPRSPHSLEVLWNVSRTDLEMSGLKTLEHVAVTVSITHPRRGSLELKLFCPSGMMSLIGAPRSMDSDPNGFNDWTFSTVRCWGERARGVYRLVIRDVGDEPLQVGILQQWQLTLYGSTWSPVDIKDRQSLLESAMSGKYLHDDFTLPCPPGLKIPEEDGYSITPNTLKTLVLVGCFSVFWTIYYMLEVCLSQRSKASTHGCRRGCCPWPPQSQNSKEVGTALESMPLCSSKDLDGVDSEHGDCTTASSLLAPELLGEADWSLSQNSKSDLDCPPHQPPDLKDGQIC
secretion of s-apoB (apo21), Western blot [2]: rat PC7 (rPC7) also enhanced by ~2-fold the secretion of s-apoB (apo21)

B3: human PC7 (overexpressed in IHH cells) (protein)
chain: SVHFNDPKYPQQWHLNNRRSPGRDINVTGVWERNVTGRGVTVVVVDDGVEHTIQDIAPNYSPEGSYDLNSNDPDPMPHPDVENGNHHGTRCAGEIAAVPNNSFCAVGVAYGSRIAGIRVLDGPLTDSMEAVAFNKHYQINDIYSCSWGPDDDGKTVDGPHQLGKAALQHGVIAGRQGFGSIFVVASGNGGQHNDNCNYDGYANSIYTVTIGAVDEEGRMPFYAEECASMLAVTFSGGDKMLRSIVTTDWDLQKGTGCTEGHTGTSAAAPLAAGMIALMLQVRPCLTWRDVQHIIVFTATRYEDRRAEWVTNEAGFSHSHQHGFGLLNAWRLVNAAKIWTSVPYLASYVSPVLKENKAIPQSPRSLEVLWNVSRMDLEMSGLKTLEHVAVTVSITHPRRGSLELKLFCPSGMMSLIGAPRSMDSDPNGFNDWTFSTVRCWGERARGTYRLVIRDVGDESFQVGILRQWQLTLYGSVWSAVDIRDRQRLLESAMSGKYLHDDFALPCPPGLKIPEEDGYTITPNTLKTLVLVGCFTVFWTVYYMLEVYLSQRNVASNQVCRSGPCHWPHRSRKAKEEGTELESVPLCSSKDPDEVETESRGPPTTSDLLAPDLLEQGDWSLSQNKSALDCPHQHLDVPHGKEEQIC
secretion of s-apoB (apoB21) into the medium, Western blot [2]: overexpression of PC7 enhanced the secretion of s-apoB (apoB21)

From patent publication US20250129370A1, “METHOD FOR REDUCING HEPATIC TRIGLYCERIDES” (ADAERATA, LIMITED PARTNERSHIP, priority 2022, published 2025)
